Literature values as cited in patent US20100260718A1, “IRF-4 AS A TUMOR SUPPRESSOR AND USES THEREOF” (Brandels University, priority 2007, published 2010).

How the values were obtained:
IRF-4 = conditions: patients with CML, downregulated before treatment
[1] = tested on: primitive CML progenitors

Question: Which results are given for IFN-α?
Answer: IRF-4 expression (IRF-4): restored; toxicity to the more primitive CML progenitors, relative to imatinib [1]: higher toxicity
